Measured values reported in US20070128217A1 (priority 2003, published 2007).

Columns and labels:
[1] = tested on: antibodies in sera from SARS patients (sera 1a, 1b, 2, 6, 37, 62, London, SARS-yellow, SARS-green); format: binding, human; set-up: Binding of serum 6 to linear peptides of protein X1 of SARS-CoV Urbani / Binding of serum 37 to linear peptides of protein X1 of SARS-CoV Urbani / Binding of serum 6 to looped/cyclic peptide (PEPSCAN-ELISA) / Binding of serum 37 to looped/cyclic peptide (PEPSCAN-ELISA) / Binding of serum 37 to looped/cyclic peptides of protein X1 of SARS-CoV Urbani / Binding of serum 6 to linear peptides of protein X2 / Binding of serum 37 to linear peptides of protein X2 / Binding of serum 37 to looped/cyclic peptides of protein X2 of SARS-CoV Urbani / Binding of serum 6 to linear peptides of protein M of SARS-CoV Urbani / Binding of serum 37 to linear peptides of protein M of SARS-CoV Urbani / Binding of serum 6 to looped/cyclic peptides of protein M of SARS-CoV Urbani / Binding of serum 37 to looped/cyclic peptides of protein M of SARS-CoV Urbani / Binding of serum 6 to linear peptides of protein X3 of SARS-CoV Urbani / Binding of serum 37 to linear peptides of protein X3 of SARS-CoV Urbani / Binding of serum 37 to looped/cyclic peptides of protein X3 of SARS-CoV Urbani / Binding of serum 6 to linear peptides of protein X4 of SARS-CoV Urbani / Binding of serum 37 to linear peptides of protein X4 of SARS-CoV Urbani / Binding of serum 37 to looped/cyclic peptides of protein X4 of SARS-CoV Urbani / Binding of serum 6 to linear peptides of protein X5 of SARS-CoV Urbani / Binding of serum 37 to linear peptides of protein X5 of SARS-CoV Urbani / Binding of serum 37 to looped/cyclic peptides of protein X5 of SARS-CoV Urbani / Binding of serum 6 to linear peptides of protein N of SARS-CoV Urbani / Binding of serum 37 to linear peptides of protein N of SARS-CoV Urbani / Binding of serum 6 to linear peptide (PEPSCAN-ELISA) / Binding of serum 1a to looped/cyclic peptides of protein N of SARS-CoV Urbani / Binding of serum 1b to looped/cyclic peptides of protein N of SARS-CoV Urbani / Binding of serum 2 to looped/cyclic peptides of protein N of SARS-CoV Urbani / Binding of serum 6 to looped/cyclic peptides of protein N of SARS-CoV Urbani / Binding of serum 37 to looped/cyclic peptides of protein N of SARS-CoV Urbani / Binding of serum 62 to looped/cyclic peptides of protein N of SARS-CoV Urbani / Binding of serum London to looped/cyclic peptides of protein N of SARS-CoV Urbani / Binding of serum SARS-green to looped/cyclic peptides of protein N of SARS-CoV Urbani: unit not given here
[2] = tested on: control sera (pooled serum of ten healthy LUMC hospital workers; commercial negative donor pooled serum from the Dutch bloodbank); format: binding, human; set-up: Binding of Control serum LUMC to linear peptides / Binding of Control serum Blood-bank to linear peptides / Binding of Control serum LUMC to looped peptides / Binding of Control Serum Blood-Bank to Looped peptides / Binding of Control serum LUMC to linear peptides of the protein M of SARS-CoV Urbani / Binding of Control serum Blood-bank to linear peptides of the protein M of SARS-CoV Urbani / Binding of Control serum LUMC to looped peptides of the protein M of SARS-CoV Urbani / Binding of Control Serum Blood-Bank to Looped peptides of the protein M of SARS-CoV Urbani: unit not given here
[3] = tested on: rabbit serum obtained by immunizing a rabbit with the SARS-CoV strain Frankfurt 1; format: binding; set-up: Binding of a rabbit serum to linear peptides / Binding of a rabbit serum to looped peptides / Rabbit serum linear peptides / Rabbit serum looped peptides / Binding of a rabbit serum to linear peptides of protein N of SARS-CoV Urbani (Rabbit serum linear peptides) / Binding of a rabbit serum to looped/cyclic peptides of protein N of SARS-CoV Urbani (Rabbit serum looped peptides): unit not given here

Sequence | Binding of serum 1a to linear peptides of protein X2 [1] | Binding of serum 1a to looped/cyclic peptides of protein X2 of SARS-CoV Urbani [1] | Binding of serum 1b to linear peptides of protein X2 [1] | Binding of serum 1b to looped/cyclic peptides of protein X2 of SARS-CoV Urbani [1] | Binding of serum 2 to linear peptides of protein X2 [1] | Binding of serum 2 to looped/cyclic peptides of protein X2 of SARS-CoV Urbani [1] | Binding of serum 6 to linear peptides of protein X2 [1] | Binding of serum 6 to looped/cyclic peptides of protein X2 of SARS-CoV Urbani [1] | Binding of serum 37 to linear peptides of protein X2 [1] | Binding of serum 37 to looped/cyclic peptides of protein X2 of SARS-CoV Urbani [1] | Binding of serum 62 to linear peptides of protein X2 [1] | Binding of serum 62 to looped/cyclic peptides of protein X2 of SARS-CoV Urbani [1] | Binding of serum London to linear peptides of protein X2 [1] | Binding of serum London to looped/cyclic peptides of protein X2 of SARS-CoV Urbani [1] | Binding of Control Serum Blood-Bank to Looped peptides [2] | Binding of Control serum Blood-bank to linear peptides [2] | Binding of Control serum LUMC to linear peptides [2] | Binding of Control serum LUMC to looped peptides [2] | Binding of a rabbit serum to linear peptides [3] | Binding of a rabbit serum to looped peptides [3] | other results
THRMCKYTQSTALQE | 0.9 | 0.5 | 0.8 | 0.6 | 0.5 | 0.2 | 0.6 | 0.2 | 0.7 | 0.3 | 0.8 | 0.4 | 0.7 | 0.2 | 0.5 | 0.9 | 0.7 | 0.4 | 0.3 | 0.3 | Binding of serum SARS-green to linear peptides of protein X2 [1]: 0.6; Binding of serum SARS-green to looped/cyclic peptides of protein X2 of SARS-CoV Urbani [1]: 0.5; Binding of serum SARS-yellow to linear peptides of protein X2 [1]: 0.8; Binding of serum SARS-yellow to looped/cyclic peptides of protein X2 of SARS-CoV Urbani [1]: 0.3
ALIYFLQCINACRII | – | – | – | – | – | – | – | – | – | – | – | – | – | – | 0.5 | 0.5 | 0.5 | 0.3 | 0.7 | 0.6 | Binding of serum 1a to linear peptides of protein X1 of SARS-CoV Urbani [1]: 0.6; Binding of serum 1a to looped/cyclic peptide (PEPSCAN-ELISA) [1]: 0.3; Binding of serum 1b to linear peptides of protein X1 of SARS-CoV Urbani [1]: 0.6; Binding of serum 1b to looped/cyclic peptide (PEPSCAN-ELISA) [1]: 0.2; Binding of serum 2 to linear peptides of protein X1 of SARS-CoV Urbani [1]: 0.5; Binding of serum 2 to looped/cyclic peptide (PEPSCAN-ELISA) [1]: 0.4; Binding of serum 6 to linear peptides of protein X1 of SARS-CoV Urbani [1]: 0.4; Binding of serum 6 to looped/cyclic peptide (PEPSCAN-ELISA) [1]: 0.9; Binding of serum 37 to linear peptides of protein X1 of SARS-CoV Urbani [1]: 0.7; Binding of serum 37 to looped/cyclic peptide (PEPSCAN-ELISA) [1]: 0.3; Binding of serum 62 to linear peptides of protein X1 of SARS-CoV Urbani [1]: 0.6; Binding of serum 62 to looped/cyclic peptide (PEPSCAN-ELISA) [1]: 0.3; Binding of serum London to linear peptides of protein X1 of SARS-CoV Urbani [1]: 0.3; Binding of serum London to looped/cyclic peptide (PEPSCAN-ELISA) [1]: 1.3; Binding of serum SARS-green to linear peptides of protein X1 of SARS-CoV Urbani [1]: 0.1; Binding of serum SARS-green to looped/cyclic peptide (PEPSCAN-ELISA) [1]: 0.3; Binding of serum SARS-yellow to linear peptides of protein X1 of SARS-CoV Urbani [1]: 0.4; Binding of serum SARS-yellow to looped/cyclic peptide (PEPSCAN-ELISA) [1]: 0.1
STALQELLIQQWIQF | 0.6 | 0.6 | 0.4 | 0.5 | 0.3 | 0.4 | 0.3 | 0.2 | 0.5 | 0.4 | 0.6 | 0.6 | 0.4 | 0.2 | 0.6 | 0.6 | 0.3 | 0.7 | 0.3 | 0.4 | Binding of serum SARS-green to linear peptides of protein X2 [1]: 0.5; Binding of serum SARS-green to looped/cyclic peptides of protein X2 of SARS-CoV Urbani [1]: 0.3; Binding of serum SARS-yellow to linear peptides of protein X2 [1]: 0.3; Binding of serum SARS-yellow to looped/cyclic peptides of protein X2 of SARS-CoV Urbani [1]: 0.5
